Marks after values point to notes of the source that are not given here.
What was measured:
[1] = system: Homozygous AAD-1 (v3) gene T4 plants (Arabidopsis); experiment: T1 Arabidopsis postemergence herbicide dose response, AAD-1 comparison; assay type: in vivo, Arabidopsis thaliana
From the text: T1 plants were then randomly assigned to various rates of 2,4-D. For Arabidopsis, 50 g ae/ha 2,4-D is an effective dose to distinguish sensitive plants from ones with meaningful levels of resistance. Elevated rates were also applied to determine relative levels of resistance (50, 200, 800, or 3200 g ac/ha). Tables 10 and 11 show comparisons drawn to an aryloxyalkanoate herbicide resistance gene (AAD-1 (v3)) previously described in PCT/US2005/014737.
All auxin herbicide applications were made using the DeVilbiss sprayer as described above to apply 703 L/ha spray volume (0.4 ml solution/3-inch pot) or applied by track sprayer in a 187 L/ha spray volume. 2,4-D used was either technical grade (Sigma, St. Louis, Mo.) dissolved in DMSO and diluted in water (<1% DMSO final concentration) or the commercial dimethylamine salt formulation (456 g ac/L, NuFarm, St Joseph, Mo.). Dichlorprop used was commercial grade formulated as potassium salt of R-dichlorprop (600 g ai/L, AH Marks). As herbicide rates increased beyond 800 g ae/ha, the pH of the spray solution became exceedingly acidic, burning the leaves of young, tender Arabidopsis plants and complicating evaluation of the primary effects of the herbicides. It became standard practice to apply these high rates of herbicides in 200 mM HEPES buffer, pH 7.5.
The first Arabidopsis transformations were conducted using AAD-12 (v1) (plant optimized gene). T1 transformants were first selected from the background of untransformed seed using a glufosinate selection scheme. Over 300,000 T1 seed were screened and 316 glufosinate resistant plants were identified (PAT gene), equating to a transformation/selection frequency of 0.10% which lies in the normal range of selection frequency of constructs where PAT+Liberty are used for selection. T1 plants selected above were subsequently transplanted to individual pots and sprayed with various rates of commercial aryloxyalkanoate herbicides. Table 11 compares the response of AAD-12 (v1) and control genes to impart 2,4-D resistance to Arabidopsis T1 transformants. Response is presented in terms of % visual injury 2 WAT. […] Since each T1 is an independent transformation event, one can expect significant variation of individual T1 responses within a given rate. An arithmetic mean and standard deviation is presented for each treatment. The range in individual response is also indicated in the last column for each rate and transformation. PAT/Cry1F-transformed Arabidopsis served as an auxin-sensitive transformed control. The AAD-12 (v1) gene imparted herbicide resistance to individual T1 Arabidopsis plants. Within a given treatment, the level of plant response varied greatly and can be attributed to the fact each plant represents an independent transformation event. Of important note, at each 2,4-D rate tested, there were individuals that were unaffected while some were severely affected. […] Injury levels tend to be greater and the frequency of uninjured plants was lower at elevated rates up to 3,200 g ae/ha (or 6× field rate). Also at these high rates, the spray solution becomes highly acidic unless buffered. Arabidopsis grown mostly in the growth chamber has a very thin cuticle and severe burning effects can complicate testing at these elevated rates. Nonetheless, many individuals have survived 3.200 g ac/ha 2,4-D with little or no injury.

[2] = system: AAD-12 (v1) event pDAB4101[20] T1 rice; experiment: Field tolerance of rice, AAD-12 event; assay type: in vivo, Oryza sativa; conditions: for visual injury: 7 or 15DAT; for % Visual injury 7DAT / % Visual injury 15DAT: AAD-12 event pDAB4101[20]
Method: (§1) A field level tolerance trial was conducted with AAD-12 (v1) event pDAB4101[20] and one wild-type rice (Clearfield 131) at Wayside, Miss. (a non-transgenic imidazolinone-resistant variety). The experimental design was a randomized complete block design with a single replication. […] Within each herbicide treatment, two rows of T1 generation pDAB4101[20] and two rows of Clearfield rice were planted using a small plot drill with 8-inch row spacing. The pDAB4101[20] rice contained the AHAS gene as a selectable marker for the AAD-12(v1) gene. Imazethapyr was applied at the one leaf stage as selection agent to remove any AAD-12 (v1) null plants from the plots. Herbicide treatments were applied when the rice reached the 2 leaf stage using compressed air backpack sprayer delivering 187 L/ha carrier volume at 130-200 kpa pressure. […]

[3] = system: wild-type rice (Clearfield 131); experiment: Field tolerance of rice, wild-type; assay type: in vivo, Oryza sativa; conditions: for % Visual injury 7DAT / % Visual injury 15DAT: Wild-type Clearfield
Method: as §1

[4] = system: Pat/Cry1f-Control Arabidopsis; experiment: Foliar-applied auxinic herbicides on transformed control Arabidopsis; assay type: in vivo, Arabidopsis thaliana; conditions: Pyridyloxyacetic auxins
Method: The ability of AAD-12 (v1) to provide resistance to other aryloxyalkanoate auxin herbicides in transgenic Arabidopsis was determined by foliar application of various substrates. T2 generation Arabidopsis seed was stratified, and sown into selection trays much like that of Arabidopsis (Example 6.4). A transformed-control line containing PAT and the insect resistance gene Cry1F was planted in a similar manner. Seedlings were transferred to individual 3-inch pots in the greenhouse. All plants were sprayed with the use of a track sprayer set at 187 L/ha. The plants were sprayed with a range of pyridyloxyacetate herbicides: 280-2240 g ae/ha triclopyr (Garlon 3A, Dow AgroSciences) and 280-2240 g ae/ha fluroxypyr (Starane, Dow AgroSciences); and the 2,4-D metabolite resulting from AAD-12 activity, 2,4-dichlorophenol (DCP, Sigma) (at a molar equivalent to 280-2240 g ac/ha of 2,4-D, technical grade DCP was used). All applications were formulated in water. Each treatment was replicated 3-4 times. Plants were evaluated at 3 and 14 days after treatment.

[5] = 50 g ae/ha 2,4-D postemergence, 2 WAT
[6] = 200 g ae/ha 2,4-D postemergence, 2 WAT
[7] = 800 g ae/ha 2,4-D postemergence, 2 WAT
[8] = 3200 g ae/ha 2,4-D postemergence, 2 WAT
[9] = 50 g ae/ha R-dichlorprop postemergence
[10] = 200 g ae/ha R-dichlorprop postemergence
[11] = 800 g ae/ha R-dichlorprop postemergence
[12] = 3200 g ae/ha R-dichlorprop postemergence

Q: What does the source list for `O=C(O)COc1ccc(Cl)cc1Cl` [2,4-D, 2,4-dichlorophenoxyacetic acid]?
A: % Injury 20-40% (number of individuals) [1, 5]: 0; % Injury <20% (number of individuals) [1, 5]: 10; % Injury >40% (number of individuals) [1, 5]: 0; % Injury Ave [1, 5]: 0%; % Injury 20-40% (number of individuals) [1, 6]: 0; % Injury <20% (number of individuals) [1, 6]: 10; % Injury >40% (number of individuals) [1, 6]: 0; % Injury Ave [1, 6]: 0%; % Injury 20-40% (number of individuals) [1, 7]: 0; % Injury <20% (number of individuals) [1, 7]: 10; % Injury >40% (number of individuals) [1, 7]: 0; % Injury Ave [1, 7]: 0%; % Injury 20-40% (number of individuals) [1, 8]: 1; % Injury <20% (number of individuals) [1, 8]: 9; % Injury >40% (number of individuals) [1, 8]: 0; % Injury Ave [1, 8]: 2%; visual injury ([2]; 2,4-D at 2240 g ae/ha): no injury; % Visual injury 7DAT ([2]; 2240 GM AE/HA): 0%; % Visual injury 15DAT ([2]; 2240 GM AE/HA): 0%; visual injury ([3]; 2,4-D at 2240 g ae/ha, 7DAT): 30%; visual injury ([3]; 2,4-D at 2240 g ae/ha, 15DAT): 35%; % Visual injury 7DAT ([3]; 2240 GM AE/HA): 15%; % Visual injury 15DAT ([3]; 2240 GM AE/HA): 35%

Q: What does the source list for `C[C@@H](Oc1ccc(Cl)cc1Cl)C(=O)O` [(R)-dichlorprop, R-2,4-dichlorophenoxypropionic acid]?
A: % Injury 20-40% (number of individuals) [1, 9]: 0; % Injury <20% (number of individuals) [1, 9]: 10; % Injury >40% (number of individuals) [1, 9]: 0; % Injury Ave [1, 9]: 0%; % Injury 20-40% (number of individuals) [1, 10]: 0; % Injury <20% (number of individuals) [1, 10]: 10; % Injury >40% (number of individuals) [1, 10]: 0; % Injury Ave [1, 10]: 0%; % Injury 20-40% (number of individuals) [1, 11]: 0; % Injury <20% (number of individuals) [1, 11]: 10; % Injury >40% (number of individuals) [1, 11]: 0; % Injury Ave [1, 11]: 0%; % Injury 20-40% (number of individuals) [1, 12]: 0; % Injury <20% (number of individuals) [1, 12]: 10; % Injury >40% (number of individuals) [1, 12]: 0; % Injury Ave [1, 12]: 0%

Q: How did the “Ave % Injury 14DAT” value ([4]; 280 g ae/ha foliar) turn out when `Nc1c(Cl)c(F)nc(OCC(=O)O)c1Cl` [Fluroxypyr] was run?
A: 75* %

Q: What about the “Ave % Injury 14DAT” value ([4]; 560 g ae/ha foliar) of the same molecule?
A: 75* %

Q: And the “Ave % Injury 14DAT” value ([4]; 1120 g ae/ha foliar)?
A: 75* %

Q: What about the “Ave % Injury 14DAT” value ([4]; 2240 g ae/ha foliar) of the same molecule?
A: 75* %

Q: How did the visual injury ([2]; 2× rate of triclopyr (560 g ae/ha)) turn out when `O=C(O)COc1nc(Cl)c(Cl)cc1Cl` [triclopyr] was run?
A: no injury

Q: What about the “% Visual injury 7DAT” value ([2]; 840 GM AE/HA) of the same molecule?
A: 0%

Q: And the “% Visual injury 15DAT” value ([2]; 840 GM AE/HA)?
A: 0%

Q: And the visual injury ([3]; 2× rate of triclopyr (560 g ae/ha), 7DAT)?
A: 15%

Q: What about the visual injury ([3]; 2× rate of triclopyr (560 g ae/ha), 15DAT) of the same molecule?
A: 25%

Q: And the “% Visual injury 7DAT” value ([3]; 840 GM AE/HA)?
A: 30%

Q: What about the “% Visual injury 15DAT” value ([3]; 840 GM AE/HA) of the same molecule?
A: 25%

Q: And the “Ave % Injury 14DAT” value ([4]; 280 g ae/ha foliar)?
A: 52%

Q: And the “Ave % Injury 14DAT” value ([4]; 560 g ae/ha foliar)?
A: 58%

Q: And the “Ave % Injury 14DAT” value ([4]; 1120 g ae/ha foliar)?
A: 75* %

Q: And the “Ave % Injury 14DAT” value ([4]; 2240 g ae/ha foliar)?
A: 75* %

— patent US11371055B2, “Herbicide resistance genes” (CORTEVA AGRISCIENCE LLC, priority 2005, dated 2022)
